In patent publication US9550767B2, “Crystalline form of (R)-7-chloro-N-(quinuclidin-3-yl)benzo[b]thiophene-2-carboxamide hydrochloride monohydrate” (Forum Pharmaceuticals, Inc., priority 2010, dated 2017):
Structures can show the parent of a compound that is named as a salt. Where two headings read alike, the source gives them in different places. Values belong to the molecule of their own block, whether it stands above or below them.

Columns and labels:
Type in all cases: physicochemical
[1] = Transformation behavior in 98 v/v % aqueous acetonitrile (seeded slurry, XRPD)
Experimental: Form I crystals and 40 v/w times volume of 98 v/v % aqueous acetonitrile were added to a glass vessel. The mixture was stirred with Teflon-coated magnetic stirrer bar and heated to 80° C. with aluminum block. After dissolved, solution was cooled to 5° C. at the rate of 30° C. per hour. To the slurry of Form X, 10 w/w % of Form I crystals were added as seed crystals at 5° C., then controlled to a certain temperature. Samples of solid material were analyzed by XRPD on a periodic basis.

[2] = Hygroscopicity (DVS-1); settings: between 10% RH and 90% RH at 25° C.; for Hygroscopicity: hydrochloride monohydrate
Experimental: The hygroscopicity of Forms I and II were investigated using a Surface measurement systems, DVS-1, between 10% RH and 90% RH at 25° C.

[3] = Transformation behavior in 97 v/v % aqueous acetonitrile (XRPD)
Experimental: Form X crystals and 97 v/v % aqueous acetonitrile were added to a glass vessel. The mixture was stirred with Teflon-coated magnetic stirrer bar at the temperature controlled with aluminum block. Solid component was sampled periodically and analyzed by XRPD to determine the crystal form.

[4] = Stability under photo storage conditions; settings: light (D65 lamp) of 1.2 million Lux hours at 25° C.
Excerpt: (§1) The crystalline Forms I and II are very stable in many aspects. Both forms are stable under storage conditions. […] Both forms are also stable under physical stress. The XRD charts of both forms were not changed after compression experiments with a planar pestle (1000 kgf/cm^2).

[5] = Solubility in water (shaking 20 minutes, HPLC UV 210 nm); settings: for solubility at 20 min: thermodynamic from solid; for Solubility in water: hydrochloride monohydrate
Experimental: Excess amount of the samples, Forms I and II, were suspended in water, and were equilibrated by shaking for 20 minutes at 25° C. or 37° C., respectively. The amounts of dissolved the compound were determined using a Waters alliance HPLC system 2695, detected by UV 210 nm.

[6] = Crystallization behavior in 98 v/v % aqueous acetonitrile (XRPD); settings: seeded experiments
Experimental: Form I crystals were added to 98 v/v % aqueous acetonitrile in a glass vessel. Next, 98 v/v % aqueous acetonitrile was added to make the mixture 40 v/w times relative to the Form I crystal. The mixture was stirred with Teflon-coated magnetic stirrer bar and heated to 80° C. with aluminum block. After the crystals were dissolved, the mixture was cooled to a determined temperature at the rate of 30° C. per hour. After a determined holding time, Form I crystals were added as seed crystals according to object of an experiment. Precipitates were sampled periodically and analyzed by XRPD.

[7] = Stability under storage conditions (temperature/humidity); settings: 11% RH at 40° C., 75% RH at 40° C., 11% RH at 60° C. and 75% RH at 60° C. after 2 weeks
Excerpt: as §1

[8] = Solubility measurements of Forms I and II in aqueous acetonitrile (HPLC, equilibrium plateau); settings: for solubility: aqueous acetonitrile; for Thermodynamic relationship between forms I and II crystals: based on solubility measurements in aqueous acetonitrile
Experimental: Solubility of Forms I and II was measured at various temperatures between 5° C. and 45° C. in aqueous acetonitrile in which water concentration was from 0 to 10 v/v % respectively.
Solubility was measured according to the following procedure. Form I or II crystals and an aqueous acetonitrile were added to a glass vessel. The mixture was stirred with a Teflon-coated magnetic stirrer bar at a defined temperature controlled with aluminum block. The liquid phase was sampled periodically, and the concentration of the compound was measured with high performance liquid chromatography (HPLC). Solid material was also collected at the same time to identify the crystal form using XRPD. In analyzing the time course of the change in concentration, that plateau zone was identified as an equilibrium condition, and the mean value of these concentrations was defined as “solubility” under that condition.

[9] = Stability under physical stress (compression with planar pestle, XRD); settings: 1000 kgf/cm^2
Excerpt: as §1

Hygroscopicity [2]: no hygroscopicity | Degradation products under photo storage conditions [4]: no degradation products | solubility at 20 min ([5]; 25 °C): 39 mg/mL | solubility at 20 min ([5]; 37 °C): 90 mg/mL | Degradation products under storage conditions [7]: No degradation products | solubility ([8]; 5 °C, organic solvent or mixture, thermodynamic from solid, water concentration 0 v/v %, 5 °C, read-out: Solubility): 1 mg/mL | solubility ([8]; 5 °C, organic solvent or mixture, thermodynamic from solid, water concentration 2 v/v %, 5 °C, read-out: Solubility): 2.4 mg/mL | solubility ([8]; 5 °C, organic solvent or mixture, thermodynamic from solid, water concentration 6 v/v %, 5 °C, read-out: Solubility): 12.8 mg/mL | solubility ([8]; 12.5 °C, organic solvent or mixture, thermodynamic from solid, water concentration 3.5 v/v %, 12.5 °C, read-out: Solubility): 5.4 mg/mL | solubility ([8]; 12.5 °C, organic solvent or mixture, thermodynamic from solid, water concentration 8.5 v/v %, 12.5 °C, read-out: Solubility): 27.6 mg/mL | solubility ([8]; 25 °C, organic solvent or mixture, thermodynamic from solid, water concentration 0 v/v %, 25 °C, read-out: Solubility): 1.3 mg/mL | solubility ([8]; 25 °C, organic solvent or mixture, thermodynamic from solid, water concentration 2 v/v %, 25 °C, read-out: Solubility): 4.1 mg/mL | solubility ([8]; 25 °C, organic solvent or mixture, thermodynamic from solid, water concentration 6 v/v %, 25 °C, read-out: Solubility): 17.1 mg/mL | solubility ([8]; 25 °C, organic solvent or mixture, thermodynamic from solid, water concentration 10 v/v %, 25 °C, read-out: Solubility): 47.5 mg/mL | solubility ([8]; 37.5 °C, organic solvent or mixture, thermodynamic from solid, water concentration 3.5 v/v %, 37.5 °C, read-out: Solubility): 10 mg/mL | solubility ([8]; 37.5 °C, organic solvent or mixture, thermodynamic from solid, water concentration 8.5 v/v %, 37.5 °C, read-out: Solubility): 44.4 mg/mL | solubility ([8]; 45 °C, organic solvent or mixture, thermodynamic from solid, water concentration 2 v/v %, 45 °C, read-out: Solubility): 8.7 mg/mL | solubility ([8]; 45 °C, organic solvent or mixture, thermodynamic from solid, water concentration 6 v/v %, 45 °C, read-out: Solubility): 27.2 mg/mL | solubility ([8]; 45 °C, organic solvent or mixture, thermodynamic from solid, water concentration 10 v/v %, 45 °C, read-out: Solubility): 71.6 mg/mL | Thermodynamic relationship between forms I and II crystals [8]: enantiotropy | XRD chart after compression [9]: not changed
SMILES: O=C(N[C@H]1CN2CCC1CC2)c1cc2cccc(Cl)c2s1 [Form I, (R)-7-chloro-N-(quinuclidin-3-yl)benzo[b]thiophene-2-carboxamide hydrochloride monohydrate]
Relative stability of Form I versus Form X [1]: more stable than Form X regardless of temperature | Relative stability of Form I versus Form X [3]: more stable than Form X regardless of temperature | Relative stability of Form I versus Form X [6]: more stable than Form X regardless of temperature

Channel water absorbed and desorbed [2]: ca. 1 mol | Water value increased and decreased by absorption and desorption [2]: approximately 4% | Hygroscopicity [2]: there was a hygroscopicity | Degradation products under photo storage conditions [4]: no degradation products | Solubility in water ([5]; 25° C.): 30 mg/mL | Solubility in water ([5]; 37° C.): 54 mg/mL | Degradation products under storage conditions [7]: No degradation products | solubility ([8]; 5 °C, organic solvent or mixture, thermodynamic from solid, water concentration 10 v/v %, 5 °C, read-out: Solubility): 29.7 mg/mL | solubility ([8]; water concentration 2 v/v %, 5 °C, hydrochloride monohydrate): 2.6 | solubility ([8]; water concentration 2 v/v %, 25 °C, hydrochloride monohydrate): 4.7 | solubility ([8]; water concentration 3.5 v/v %, 12.5 °C, hydrochloride monohydrate): 5.7 | solubility ([8]; water concentration 6 v/v %, 5 °C, hydrochloride monohydrate): 11.2 | solubility ([8]; water concentration 6 v/v %, 25 °C, hydrochloride monohydrate): 16.7 | solubility ([8]; water concentration 6 v/v %, 45 °C, hydrochloride monohydrate): 29.6 | solubility ([8]; water concentration 8.5 v/v %, 12.5 °C, hydrochloride monohydrate): 25.1 | solubility ([8]; water concentration 8.5 v/v %, 37.5 °C): 44.4 | solubility ([8]; water concentration 10 v/v %, 25 °C, hydrochloride monohydrate): 44.6 | solubility ([8]; water concentration 10 v/v %, 45 °C, hydrochloride monohydrate): 74.5 | Thermodynamic relationship between forms I and II crystals [8]: enantiotropy | XRD chart after compression [9]: not changed
SMILES: O=C(N[C@H]1CN2CCC1CC2)c1cc2cccc(Cl)c2s1 [Form II, (R)-7-chloro-N-(quinuclidin-3-yl)benzo[b]thiophene-2-carboxamide hydrochloride monohydrate]
